How the values were obtained:
Type in all cases: binding
[1] = target: T1, HusA L123N-V124N (Porphyromonas gingivalis, UniProt Q7MSY3, L123N/V124N); assay: Tryptophan fluorescence quenching assay, HusA mutant L123N-V124N; conditions: haemin, mutant L123N-V124N
T1 sequence (Q7MSY3 24-218 L123N/V124N): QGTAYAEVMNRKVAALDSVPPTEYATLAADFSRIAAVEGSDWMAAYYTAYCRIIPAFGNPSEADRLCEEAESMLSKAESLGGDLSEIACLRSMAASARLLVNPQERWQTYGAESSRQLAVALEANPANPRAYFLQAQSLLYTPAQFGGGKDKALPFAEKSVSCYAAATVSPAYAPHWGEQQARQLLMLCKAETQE
Description: (§1) The quenching of intrinsic tryptophan fluorescence of HusA upon porphyrin additions was measured using a Carey Eclipse Fluorescence Spectrophotometer (Agilent) set to a photo multiplier effect (PME) of 850. A 5-mm path length quartz cuvette was used and all spectra were acquired at room temperature. Excitation was set to 295 nm and emission was measured from 300 nm to 500 nm using excitation/emission slit widths of 5 nm. Binding assays were performed at a protein concentration of 1 μM HusA in standard buffer at a working volume of 0.5 mL. […] The fluorescence quenching of HusA by PPIX was investigated in a similar manner with the following difference: the fluorescence intensities of ten 1 μM HusA samples were measured each with increasing amounts of PPIX after a 2-h incubation period to allow equilibrium to be reached. See Supplementary Methods for correction for inner filter effect and curve fitting. […]
(§2) Correction of inner filter effect and curve fitting in tryptophan fluorescence quenching assays The concentration of NATA was chosen such that the raw fluorescence intensity was similar to the 10 uM concentrations of HusA and mutants used. […] Fluorescence intensity was scaled with respect to the starting florescence and corrected for the inner filter effect. Fluorescence at 335 nm was used to fit binding curves. […]

[2] = target: T2, HusA Y164A (Porphyromonas gingivalis, UniProt Q7MSY3, Y164A); assay: Tryptophan fluorescence quenching assay, HusA mutant Y164A; conditions: haemin
T2 sequence (Q7MSY3 24-218 Y164A): T1 sequence (Q7MSY3 24-218 L123N/V124N)
Description: as §1, §2

[3] = target: T3, HusA W130N (Porphyromonas gingivalis, UniProt Q7MSY3, W130N); assay: Tryptophan fluorescence quenching assay, HusA mutant W130N; conditions: haemin
T3 sequence (Q7MSY3 24-218 W130N): T1 sequence (Q7MSY3 24-218 L123N/V124N)

[4] = target: T4, HusA R121A (Porphyromonas gingivalis, UniProt Q7MSY3, R121A); assay: Tryptophan fluorescence quenching assay, HusA mutant R121A; conditions: haemin
T4 sequence (Q7MSY3 24-218 R121A): T1 sequence (Q7MSY3 24-218 L123N/V124N)

[5] = target: T5, HusA L107A (Porphyromonas gingivalis, UniProt Q7MSY3, L107A); assay: Tryptophan fluorescence quenching assay, HusA mutant L107A; conditions: haemin
T5 sequence (Q7MSY3 24-218 L107A): T1 sequence (Q7MSY3 24-218 L123N/V124N)

[6] = target: T6, HusA Y133A (Porphyromonas gingivalis, UniProt Q7MSY3, Y133A); assay: Tryptophan fluorescence quenching assay, HusA mutant Y133A; conditions: haemin
T6 sequence (Q7MSY3 24-218 Y133A): T1 sequence (Q7MSY3 24-218 L123N/V124N)

[7] = target: T7, HusA R139A (Porphyromonas gingivalis, UniProt Q7MSY3, R139A); assay: Tryptophan fluorescence quenching assay, HusA mutant R139A; conditions: haemin
T7 sequence (Q7MSY3 24-218 R139A): T1 sequence (Q7MSY3 24-218 L123N/V124N)

C=CC1=C(C)c2cc3[nH]c(cc4nc(cc5[nH]c(cc1n2)c(C)c5CCC(=O)O)C(CCC(=O)O)=C4C)c(C)c3C=C.[Fe+3] [haemin]
Kd [1]: 10.3 ± 0.7 µM
Kd [2]: 13 ± 0.7 µM
Kd [3]: 16 ± 1.8 µM
Kd [4]: 6.7 ± 1.2 µM
Kd [5]: 5.5 ± 0.3 µM
Kd [6]: 7.4 ± 0.6 µM
Kd [7]: 6.3 ± 1.4 µM

Reference: paper PMC6173696, “Structural properties of a haemophore facilitate targeted elimination of the pathogen Porphyromonas gingivalis” (Nature Communications, 2018)
